Data from patent US7550465B2, “Pyrido[3,2-e]pyrazines, their use as inhibitors of phosphodiesterase 10, and processes for preparing them” (Elbion GmbH, priority 2006, dated 2009).
Each block holds one molecule with its values, some of them ahead of it.

Assays:
[1] = biological target: PDE10 from pig striatum (Sus scrofa, UniProt A0A287B941); test: Inhibition of PDE10 from pig striatum ([3H]-cAMP SPA); format: biochemical; conditions: for IC50: pig striatum preparation, 0.1 μM [3H]-cAMP, 37° C., 30 minutes
Description: (§1) Phosphodiesterase isoenzyme 10 (PDE10) activity was determined in preparations of rat, pig and guinea pig striatum respectively. Striatum from male Wistar rats (180-200 g), male hybrid pigs (150 kg) and male guinea pigs (CRL (HA), 500 g) respectively were collected and frozen at −70° C.
(§2) For the enzymatic testing of PDE10 activity 0.5 g of the isolated and frozen striatum was homogenised in 10 ml 50 mM Tris/Mg-buffer at 4° C. and centrifuged for one hour at 100000 g.
(§3) Nonspecific activity was tested without the enzyme. […] For determination of IC50 values the Hill-plot, 2-parameter-model, was used.

[2] = system: MK-801-induced hyperactivity and stereotyped sniffing; test: MK-801-induced psychosis (hyperactivity and stereotyped sniffing); format: in vivo, rat; conditions: p.o., 30 min before test (Example 30: 60 min), female Wistar rats, MK-801 0.1 mg/kg i.p. 10 min before, vs MK-801 control; for dose significantly reversing MK-801-induced hyperactivity: activity recorded 1 h; for dose significantly reversing MK-801-induced stereotyped sniffing: scored 1 h
Description: Female Wistar rats (Crl: (WI) BR, Charles River, Sulzfeld, Germany) weighing 150 to 180 g were used for the MK-801-induced psychosis. Animals were housed under standard conditions in groups of five on a 12 h light/dark cycle (light on at 0600 h) with ad libitum access to food (Pellets, ssniff M/R 15, Spezialdiät GmbH, Soest/Westfalen) and
Hydroxyethylcellulose was solved in distilled water.
MK-801 was solved in saline so that an administration volume of 0.5 ml/100 g was reached. The suspensions and solution were placed on a magnetic stirrer before and during dosing procedures.
The behaviour induced by the NMDA antagonist MK-801 is generally accepted as a rat model of psychosis. MK-801 induces stereotyped sniffing, hyperactivity and ataxia in rats after intraperitoneal administration.
Locomotor activity of the rats was recorded by the MotiTest Apparatus (TSE, Bad Homburg, Germany). The test area consisted of a squared arena (45×45 cm) with protective plexiglass walls (20 cm of height) where rats could freely move. Horizontal movements were recorded by 32 infrared photocells arranged along the bottom of each wall of the arena. The activity [sec] was measured by the computer program “ActiMot” (TSE, Bad Homburg, Germany).
Stereotyped sniffing was scored by the experimenter every five minutes for one hour (12 intervals) according to the method described by Andiné et al. (1999). The scores of the 12 intervals were summed up at the end of the recording time.
The day of experiment the female rats were placed in the laboratory and received the test compound or vehicle at the appropriate time prior to test. MK-801 0.1 mg/kg was intraperitoneally administered 10 minutes prior to test.
At the beginning of the test the rats were placed in the centre of the squared arena of the MotiTest apparatus. Behaviour of the rats was recorded for one hour. After each run animals were removed and the boxes thoroughly cleaned and dried.
Results were analysed by one way analysis of variance (ANOVA). Tukey test was used for individual comparison. P<0.05 was regarded as significant.

[3] = biological target: PDE10 from guinea pig striatum (Cavia porcellus, UniProt A0A286XN47); test: Inhibition of PDE10 from guinea pig striatum ([3H]-cAMP SPA); format: biochemical; conditions: guinea pig striatum preparation; 0.1 μM [3H]-cAMP; 37° C., 30 minutes
Description: as §1, §2, §3

[4] = biological target: T1, PDE10 from rat striatum (Rattus norvegicus, UniProt Q9QYJ6); test: Inhibition of PDE10 from rat striatum ([3H]-cAMP SPA); format: biochemical; conditions: substrate of the enzyme preparation
T1 construct: from tissue; host or cells: rat striatum (male Wistar rats), homogenate fractions enriched on HiTrap Q HP
T1 sequence (Q9QYJ6 1-794): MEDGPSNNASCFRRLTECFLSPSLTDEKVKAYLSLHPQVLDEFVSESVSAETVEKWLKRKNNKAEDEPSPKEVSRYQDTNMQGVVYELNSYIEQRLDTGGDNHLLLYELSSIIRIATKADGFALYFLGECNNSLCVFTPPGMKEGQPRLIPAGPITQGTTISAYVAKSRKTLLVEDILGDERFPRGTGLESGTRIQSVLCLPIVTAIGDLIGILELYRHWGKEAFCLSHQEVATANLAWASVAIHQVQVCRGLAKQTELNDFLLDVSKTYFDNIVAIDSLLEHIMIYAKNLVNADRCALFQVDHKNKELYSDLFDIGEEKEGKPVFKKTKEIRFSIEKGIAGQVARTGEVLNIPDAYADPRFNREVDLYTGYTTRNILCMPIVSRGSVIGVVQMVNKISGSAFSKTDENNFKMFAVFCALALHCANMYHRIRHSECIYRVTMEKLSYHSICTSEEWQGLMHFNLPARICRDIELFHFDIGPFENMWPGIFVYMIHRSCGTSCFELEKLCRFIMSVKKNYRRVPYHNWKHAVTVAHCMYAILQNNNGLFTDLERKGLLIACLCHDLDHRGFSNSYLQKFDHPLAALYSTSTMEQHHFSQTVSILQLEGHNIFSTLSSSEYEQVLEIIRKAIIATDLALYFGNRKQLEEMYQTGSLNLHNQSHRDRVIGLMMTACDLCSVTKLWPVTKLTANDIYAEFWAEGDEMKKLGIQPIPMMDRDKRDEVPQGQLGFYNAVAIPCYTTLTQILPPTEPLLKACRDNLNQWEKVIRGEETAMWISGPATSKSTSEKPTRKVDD
Description: as §1, §2, §3

PDE10 from guinea pig striatum, sequence (A0A286XN47 1-773): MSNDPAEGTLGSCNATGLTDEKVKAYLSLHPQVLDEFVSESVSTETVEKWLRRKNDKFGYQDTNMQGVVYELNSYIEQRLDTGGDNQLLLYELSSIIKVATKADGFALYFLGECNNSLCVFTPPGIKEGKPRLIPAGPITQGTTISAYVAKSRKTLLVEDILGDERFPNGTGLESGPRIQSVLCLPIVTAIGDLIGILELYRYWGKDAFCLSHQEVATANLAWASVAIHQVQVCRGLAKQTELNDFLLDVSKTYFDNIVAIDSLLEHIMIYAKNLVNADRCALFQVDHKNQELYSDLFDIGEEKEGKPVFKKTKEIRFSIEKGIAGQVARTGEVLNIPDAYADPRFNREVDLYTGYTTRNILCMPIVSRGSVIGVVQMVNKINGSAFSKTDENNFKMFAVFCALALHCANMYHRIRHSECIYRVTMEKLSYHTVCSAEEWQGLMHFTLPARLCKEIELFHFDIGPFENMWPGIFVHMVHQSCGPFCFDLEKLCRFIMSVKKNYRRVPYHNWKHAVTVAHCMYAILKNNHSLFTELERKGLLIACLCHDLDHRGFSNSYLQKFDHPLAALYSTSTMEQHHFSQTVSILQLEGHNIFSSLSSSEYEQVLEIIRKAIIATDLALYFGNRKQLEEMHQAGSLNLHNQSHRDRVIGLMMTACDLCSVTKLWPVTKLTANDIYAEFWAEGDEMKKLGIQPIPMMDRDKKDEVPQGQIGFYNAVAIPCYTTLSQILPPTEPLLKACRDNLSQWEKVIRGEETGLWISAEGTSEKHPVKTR

Molecule: 1-propyl-4,8-dimethyl-imidazo[1,5-a]pyrido[3,2-e]pyrazine [Example 53]
IC50 [1]: 43 nM

Molecule: 3,4-dimethyl-8-(piperidin-1-yl)-methoxy-1-propyl-imidazo[1,5-a]pyrido[3,2-e]pyrazine [Example 55]
dose significantly reversing MK-801-induced hyperactivity [2]: 30 mg/kg
dose significantly reversing MK-801-induced stereotyped sniffing [2]: 30 mg/kg

Molecule: 4-cyano-8-methoxy-3-methyl-1-ethyl-imidazo[1,5-a]pyrido[3,2-e]pyrazine [Example 30]
dose significantly reversing MK-801-induced hyperactivity [2]: ≥ 10 mg/kg
dose significantly reversing MK-801-induced stereotyped sniffing [2]: ≥ 10 mg/kg

Molecule: 8-methoxy-3-methyl-1-propyl-imidazo[1,5-a]pyrido[3,2-e]pyrazine [Example 35]
dose significantly reversing MK-801-induced hyperactivity [2]: 30 mg/kg
dose significantly reversing MK-801-induced stereotyped sniffing [2]: ≥ 30 mg/kg

Molecule: 8-methoxy-4-methoxycarbonylamino-3-methyl-1-propyl-imidazo[1,5-a]pyrido[3,2-e]pyrazine [Example 62]
dose significantly reversing MK-801-induced hyperactivity [2]: 5 mg/kg
dose significantly reversing MK-801-induced stereotyped sniffing [2]: 5 mg/kg

Molecule: CCCN1CC=C(OC)C2=C1N1CN(OC)C=C1C=N2 [Example 2, 4,8-dimethoxy-1-propyl-imidazo[1,5-a]pyrido[3,2-e]pyrazine]
melting point: 113 to 116 °C

Molecule: CCCOC1=C(C)CN(CC)C2=C1N=CC1=CN(OC)CN12 [Example 7, 1-ethyl-8-methoxy-3-methyl-4-propyloxy-imidazo[1,5-a]pyrido[3,2-e]pyrazine]
melting point: 78 to 81 °C

Molecule: CCCN1CC(C)=C(OC(C)C)C2=C1N1CN(OC)C=C1C=N2 [Example 9, 4-isopropyloxy-8-methoxy-3-methyl-1-propyl-imidazo[1,5-a]pyrido[3,2-e]pyrazine]
melting point: 78 to 80 °C

Molecule: CCCN1CC(C)=C(SC)C2=C1N1CN(OC)C=C1C=N2 [Example 26, 8-methoxy-3-methyl-4-methylthio-1-propyl-imidazo[1,5-a]pyrido[3,2-e]pyrazine]
melting point: 112 to 115 °C

Now from value to molecule, other results behind:

IC50 [3]: 18 nM
Molecule: CCCc1nc(C)c2c(C#N)nc3ccc(OC)nc3n12 [Example 29, 4-cyano-8-methoxy-3-methyl-1-propyl-imidazo[1,5-a]pyrido[3,2e]pyrazine]
dose significantly reversing MK-801-induced stereotyped sniffing [2]: ≥ 5 mg/kg

melting point: 189 to 192 °C
Molecule: CCN1CC(C)=C([S+](C)[O-])C2=C1N1CN(OC)C=C1C=N2 (centres unmarked) [Example 34, 1-ethyl-8-methoxy-3-methyl-4-methylsulfinyl-imidazo[1,5-a]pyrido[3,2-e]pyrazine]

melting point: 159 to 162 °C
Molecule: CCN1CC(C)=CC2=C1N1CN(OC)C=C1C=N2 [Example 36, 1-ethyl-8-methoxy-3-methyl-imidazo[1,5-a]pyrido[3,2-e]pyrazine]

melting point: 104 to 107 °C
Molecule: CCCN1CC(C)=C(C)C2=C1N1CN(C)C=C1C=N2 [Example 51, 1-propyl-3,4,8-trimethyl-imidazo[1,5-a]pyrido[3,2-e]pyrazine]

IC50 [1]: 19 nM
Molecule: CCCc1nc(C)c2c(NS(=O)(=O)C(F)(F)F)nc3ccc(OC)nc3n12 [Example 73, 8-methoxy-3-methyl-1-propyl-4-trifluoromethylsulfonylamino-imidazo[1,5a]pyrido[3,2-e]pyrazine]

melting point: 203 to 206 °C
Molecule: CCCN1CC(C)=C(NS(=O)(=O)CCC)C2=C1N1CN(OC)C=C1C=N2 [Example 74, 8-methoxy-3-methyl-1-propyl-4-propylsulfonylamino-imidazo[1,5-a]pyrido[3,2-e]pyrazine]

melting point: 229 to 232 °C
Molecule: CCCN1CC(C)=C(NS(=O)(=O)c2ccc(C)cc2)C2=C1N1CN(OC)C=C1C=N2 [Example 76, 8-methoxy-3-methyl-4-(4-methylphenylsulfonylamino)-1-propyl-imidazo[1,5-a]pyrido[3,2-e]pyrazine]

melting point: 206 to 209 °C
Molecule: CCCN1CC(C)=C(N(S(=O)(=O)c2ccc(C)cc2)S(=O)(=O)c2ccc(C)cc2)C2=C1N1CN(OC)C=C1C=N2 [Example 77, 4-[N,N-bis-(4-methylphenylsulfonyl)-amino]-8-methoxy-3-methyl-1-propyl-imidazo[1,5-a]pyrido[3,2-e]pyrazine]

melting point: 250 to 253 °C
Molecule: CON1C=C2C=NC3=C(N(CCC(F)(F)F)CC(C)=C3NS(C)(=O)=O)N2C1 [Example 78, 8-methoxy-3-methyl-1-(3,3,3-trifluoropropyl)-4-methylsulfonylamino-imidazo[1,5-a]pyrido[3,2-e]pyrazine]

melting point: 217 to 220 °C
Molecule: CON1C=C2C=NC3=C(N2C1)N(c1ccccc1)CC(C)=C3NS(C)(=O)=O [Example 81, 8-methoxy-3-methyl-1-phenyl-4-methylsulfonylamino-imidazo[1,5-a]pyrido[3,2-e]pyrazine]

Km [4]: 1.8 µM
Km ([1]; substrate of the enzyme preparation): 2.2 µM
Molecule: Nc1nc2c(ncn2[C@@H]2O[C@@H]3COP(=O)(O)O[C@H]3[C@H]2O)c(=O)[nH]1 [cGMP]
